# Test results published in ChEMBL document CHEMBL1136490, “Synthesis of non-immunosuppressive cyclophilin-Binding cyclosporin A derivatives as potential anti-HIV-1 drugs” (Bioorg Med Chem Lett, 2003).
# Tests used:
# [1] = molecular target: Human immunodeficiency virus type 1 reverse transcriptase (Human immunodeficiency virus 1, UniProt Q72547); assay: In vitro inhibitory activity against HIV-1 RT in CEM4 cell line; format: cell-based
# [2] = molecular target: Peptidyl-prolyl cis-trans isomerase A (Homo sapiens, UniProt P62937); assay: Immunosuppressive activity was measured by inhibition of the IL-2 production in Jurkat cells.; format: functional, cell-based
# Peptidyl-prolyl cis-trans isomerase A, sequence (P62937 whole entry): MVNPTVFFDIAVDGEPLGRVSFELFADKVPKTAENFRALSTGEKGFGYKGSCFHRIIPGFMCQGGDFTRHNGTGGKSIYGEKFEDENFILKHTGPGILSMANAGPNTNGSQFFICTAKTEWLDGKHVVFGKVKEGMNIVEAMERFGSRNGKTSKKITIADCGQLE
IC50 [1] [nM],IC50 [2] [nM],Structure (SMILES)
95,–,C/C=C/C[C@@H](C)[C@@H](O)C1C(=O)N[C@@H](CC)C(=O)N(C)[C@H](CO)C(=O)N(C)[C@@H](CC(C)(C)O)C(=O)N[C@@H](C(C)C)C(=O)N(C)[C@@H](CC(C)C)C(=O)N[C@@H](C)C(=O)N[C@H](C)C(=O)N(C)[C@@H](CC(C)C)C(=O)N(C)[C@@H](CC(C)C)C(=O)N(C)[C@@H](C(C)C)C(=O)N1C (stereo not given in full)
19.5,61,C/C=C/C[C@@H](C)[C@@H](O)[C@H]1C(=O)N[C@@H](CC)C(=O)N(C)[C@H](SCCN(C)C(C)C)C(=O)N(C)[C@@H](CC(C)C)C(=O)N[C@@H](C(C)C)C(=O)N(C)[C@@H](CC(C)C)C(=O)N[C@@H](C)C(=O)N[C@H](C)C(=O)N(C)[C@@H](CC(C)C)C(=O)N(C)[C@@H](CC(C)C)C(=O)N(C)[C@@H](C(C)C)C(=O)N1C
–,783,C/C=C/C[C@@H](C)[C@@H](O)[C@H]1C(=O)N[C@@H](CC)C(=O)N(C)[C@H](CO)C(=O)N(C)[C@@H](CC(C)(C)O)C(=O)N[C@@H](C(C)C)C(=O)N(C)[C@@H](CC(C)C)C(=O)N[C@@H](C)C(=O)N[C@H](C)C(=O)N(C)[C@@H](CC(C)C)C(=O)N(C)[C@@H](CC(C)C)C(=O)N(C)[C@@H](C(C)C)C(=O)N1C
293,934,C/C=C/C[C@@H](C)[C@@H](O)[C@H]1C(=O)N[C@@H](CC)C(=O)N(C)CC(=O)N(C)[C@@H](C[C@@H](C)CC)C(=O)N[C@@H](C(C)C)C(=O)N(C)[C@@H](CC(C)C)C(=O)N[C@@H](C)C(=O)N[C@H](C)C(=O)N(C)[C@@H](CC(C)C)C(=O)N(C)[C@@H](CC(C)C)C(=O)N(C)[C@@H](C(C)C)C(=O)N1C
–,166,C/C=C/C[C@@H](C)[C@@H](O)[C@H]1C(=O)N[C@@H](CC)C(=O)N(C)CC(=O)N(C)[C@@H](CC(C)(C)O)C(=O)N[C@@H](C(C)C)C(=O)N(C)[C@@H](CC(C)C)C(=O)N[C@@H](C)C(=O)N[C@H](C)C(=O)N(C)[C@@H](CC(C)C)C(=O)N(C)[C@@H](CC(C)C)C(=O)N(C)[C@@H](C(C)C)C(=O)N1C
101,128,C/C=C/C[C@@H](C)[C@@H](O)[C@H]1C(=O)N[C@@H](CC)C(=O)N(C)[C@H](SCCN2CCOCC2)C(=O)N(C)[C@@H](CC(C)C)C(=O)N[C@@H](C(C)C)C(=O)N(C)[C@@H](CC(C)C)C(=O)N[C@@H](C)C(=O)N[C@H](C)C(=O)N(C)[C@@H](CC(C)C)C(=O)N(C)[C@@H](CC(C)C)C(=O)N(C)[C@@H](C(C)C)C(=O)N1C
138,–,C/C=C/C[C@@H](C)[C@@H](O)C1C(=O)N[C@@H](CC)C(=O)N(C)CC(=O)N(C)[C@@H](CC(C)(C)O)C(=O)N[C@@H](C(C)C)C(=O)N(C)[C@@H](CC(C)C)C(=O)N[C@@H](C)C(=O)N[C@H](C)C(=O)N(C)[C@@H](CC(C)C)C(=O)N(C)[C@@H](CC(C)C)C(=O)N(C)[C@@H](C(C)C)C(=O)N1C (stereo not given in full)
72,97,C/C=C/C[C@@H](C)[C@@H](O)[C@H]1C(=O)N[C@@H](CC)C(=O)N(C)[C@H](SCCN2CCCCC2)C(=O)N(C)[C@@H](CC(C)C)C(=O)N[C@@H](C(C)C)C(=O)N(C)[C@@H](CC(C)C)C(=O)N[C@@H](C)C(=O)N[C@H](C)C(=O)N(C)[C@@H](CC(C)C)C(=O)N(C)[C@@H](CC(C)C)C(=O)N(C)[C@@H](C(C)C)C(=O)N1C
43,1570,C/C=C/C[C@@H](C)[C@@H](O)[C@H]1C(=O)N[C@@H](CC)C(=O)N(C)[C@H](SCCN(C)C(C)(C)C)C(=O)N(C)[C@@H](CC(C)(C)O)C(=O)N[C@@H](C(C)C)C(=O)N(C)[C@@H](CC(C)C)C(=O)N[C@@H](C)C(=O)N[C@H](C)C(=O)N(C)[C@@H](CC(C)C)C(=O)N(C)[C@@H](CC(C)C)C(=O)N(C)[C@@H](C(C)C)C(=O)N1C
19.5,882,C/C=C/C[C@@H](C)[C@@H](O)[C@H]1C(=O)N[C@@H](CC)C(=O)N(C)[C@H](SCCN2CCCCC2)C(=O)N(C)[C@@H](CC(C)(C)O)C(=O)N[C@@H](C(C)C)C(=O)N(C)[C@@H](CC(C)C)C(=O)N[C@@H](C)C(=O)N[C@H](C)C(=O)N(C)[C@@H](CC(C)C)C(=O)N(C)[C@@H](CC(C)C)C(=O)N(C)[C@@H](C(C)C)C(=O)N1C
35,47,C/C=C/C[C@@H](C)[C@@H](O)[C@H]1C(=O)N[C@@H](CC)C(=O)N(C)[C@H](SCCN(C)C)C(=O)N(C)[C@@H](CC(C)C)C(=O)N[C@@H](C(C)C)C(=O)N(C)[C@@H](CC(C)C)C(=O)N[C@@H](C)C(=O)N[C@H](C)C(=O)N(C)[C@@H](CC(C)C)C(=O)N(C)[C@@H](CC(C)C)C(=O)N(C)[C@@H](C(C)C)C(=O)N1C
47,6050,C/C=C/C[C@@H](C)[C@@H](O)[C@H]1C(=O)N[C@@H](CC)C(=O)N(C)[C@H](SCCN(CC)CC)C(=O)N(C)[C@@H](CC(C)(C)O)C(=O)N[C@@H](C(C)C)C(=O)N(C)[C@@H](CC(C)C)C(=O)N[C@@H](C)C(=O)N[C@H](C)C(=O)N(C)[C@@H](CC(C)C)C(=O)N(C)[C@@H](CC(C)C)C(=O)N(C)[C@@H](C(C)C)C(=O)N1C
80.5,165,C/C=C/C[C@@H](C)[C@@H](O)[C@H]1C(=O)N[C@@H](CC)C(=O)N(C)[C@H](SCCn2ccnc2)C(=O)N(C)[C@@H](CC(C)C)C(=O)N[C@@H](C(C)C)C(=O)N(C)[C@@H](CC(C)C)C(=O)N[C@@H](C)C(=O)N[C@H](C)C(=O)N(C)[C@@H](CC(C)C)C(=O)N(C)[C@@H](CC(C)C)C(=O)N(C)[C@@H](C(C)C)C(=O)N1C
45,–,C/C=C/C[C@@H](C)[C@@H](O)[C@H]1C(=O)N[C@@H](CC)C(=O)N(C)[C@H](SCCN(C)C)C(=O)N(C)[C@@H](CC(C)(C)O)C(=O)N[C@@H](C(C)C)C(=O)N(C)[C@@H](CC(C)C)C(=O)N[C@@H](C)C(=O)N[C@H](C)C(=O)N(C)[C@@H](CC(C)C)C(=O)N(C)[C@@H](CC(C)C)C(=O)N(C)[C@@H](C(C)C)C(=O)N1C [SCY 635]
65.5,3,C/C=C/C[C@@H](C)[C@@H](O)[C@H]1C(=O)N[C@@H](CC)C(=O)N(C)[C@H](SC)C(=O)N(C)[C@@H](CC(C)C)C(=O)N[C@@H](C(C)C)C(=O)N(C)[C@@H](CC(C)C)C(=O)N[C@@H](C)C(=O)N[C@H](C)C(=O)N(C)[C@@H](CC(C)C)C(=O)N(C)[C@@H](CC(C)C)C(=O)N(C)[C@@H](C(C)C)C(=O)N1C
80,959,C/C=C/C[C@@H](C)[C@@H](O)[C@H]1C(=O)N[C@@H](CC)C(=O)N(C)[C@H](SCCO)C(=O)N(C)[C@@H](CC(C)(C)O)C(=O)N[C@@H](C(C)C)C(=O)N(C)[C@@H](CC(C)C)C(=O)N[C@@H](C)C(=O)N[C@H](C)C(=O)N(C)[C@@H](CC(C)C)C(=O)N(C)[C@@H](CC(C)C)C(=O)N(C)[C@@H](C(C)C)C(=O)N1C
70,19,C/C=C/C[C@@H](C)[C@@H](O)[C@H]1C(=O)N[C@@H](CC)C(=O)N(C)[C@H](SCCO)C(=O)N(C)[C@@H](CC(C)C)C(=O)N[C@@H](C(C)C)C(=O)N(C)[C@@H](CC(C)C)C(=O)N[C@@H](C)C(=O)N[C@H](C)C(=O)N(C)[C@@H](CC(C)C)C(=O)N(C)[C@@H](CC(C)C)C(=O)N(C)[C@@H](C(C)C)C(=O)N1C
2.5,15,C/C=C/C[C@@H](C)[C@@H](O)[C@H]1C(=O)N[C@@H](CC)C(=O)N(C)[C@H](SCCN(CC)CC)C(=O)N(C)[C@@H](CC(C)C)C(=O)N[C@@H](C(C)C)C(=O)N(C)[C@@H](CC(C)C)C(=O)N[C@@H](C)C(=O)N[C@H](C)C(=O)N(C)[C@@H](CC(C)C)C(=O)N(C)[C@@H](CC(C)C)C(=O)N(C)[C@@H](C(C)C)C(=O)N1C
24,277,C/C=C/C[C@@H](C)[C@@H](O)[C@H]1C(=O)N[C@@H](CC)C(=O)N(C)[C@H](SCCN(C)C(C)(C)C)C(=O)N(C)[C@@H](CC(C)C)C(=O)N[C@@H](C(C)C)C(=O)N(C)[C@@H](CC(C)C)C(=O)N[C@@H](C)C(=O)N[C@H](C)C(=O)N(C)[C@@H](CC(C)C)C(=O)N(C)[C@@H](CC(C)C)C(=O)N(C)[C@@H](C(C)C)C(=O)N1C

Structure (SMILES),IC50 [1] [nM],IC50 [2] [nM]
C/C=C/C[C@@H](C)[C@@H](O)[C@H]1C(=O)N[C@@H](CC)C(=O)N(C)[C@H](SC)C(=O)N(C)[C@@H](CC(C)(C)O)C(=O)N[C@@H](C(C)C)C(=O)N(C)[C@@H](CC(C)C)C(=O)N[C@@H](C)C(=O)N[C@H](C)C(=O)N(C)[C@@H](CC(C)C)C(=O)N(C)[C@@H](CC(C)C)C(=O)N(C)[C@@H](C(C)C)C(=O)N1C,84,110
